From US8653263B2 (Janssen Pharmaceutica, priority 2009, dated 2014)

target: human orexin-2 receptor (Homo sapiens (Human), UniProt O43614); experiment: Human orexin 2 receptor radioligand binding ([3H]-EMPA competition); conditions: HEK293 cells stably expressing human orexin-2 receptor; [3H]-EMPA 5 nM final; apparent Ki=IC50/(1+C/Kd), Kd=2 nM; read-out: OR 2 Ki
Sequence (O43614 whole entry): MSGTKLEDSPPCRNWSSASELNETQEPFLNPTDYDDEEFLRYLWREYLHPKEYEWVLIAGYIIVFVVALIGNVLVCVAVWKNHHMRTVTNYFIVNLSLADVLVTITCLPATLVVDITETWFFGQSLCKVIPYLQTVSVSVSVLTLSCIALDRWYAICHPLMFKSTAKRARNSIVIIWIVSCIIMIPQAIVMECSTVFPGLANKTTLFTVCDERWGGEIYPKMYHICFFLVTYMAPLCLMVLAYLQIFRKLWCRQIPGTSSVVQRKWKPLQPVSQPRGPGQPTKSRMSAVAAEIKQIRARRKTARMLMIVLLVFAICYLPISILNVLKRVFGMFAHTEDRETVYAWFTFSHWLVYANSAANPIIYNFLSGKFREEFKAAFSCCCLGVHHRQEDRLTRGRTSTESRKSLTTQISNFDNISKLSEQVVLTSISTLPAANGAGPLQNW

Row | SMILES | Ki [nM]
1 | COc1cc(OC)nc(N2CC3CN(C(=O)c4ccccc4-c4ccccn4)CC3C2)n1 (centres unmarked) [Example 70, 2-(4,6-Dimethoxypyrimidin-2-yl)-5-[(2-pyridin-2-ylphenyl)carbonyl]octahydro-pyrrolo[3,4-c]pyrrole] | 52
2 | COc1cc(OC)nc(N2CC3CN(C(=O)c4cc(F)ccc4-c4ncccn4)CC3C2)n1 (centres unmarked) [Example 71, 2-(4,6-Dimethoxypyrimidin-2-yl)-5-[(5-fluoro-2-pyrimidin-2-ylphenyl)carbonyl]octahydropyrrolo[3,4-c]pyrrole] | 1000
3 | COc1cc(OC)nc(N2CC3CN(C(=O)c4cc(F)ccc4-n4nccn4)CC3C2)n1 (centres unmarked) [Example 72, 2-(4,6-Dimethoxypyrimidin-2-yl)-5-{[5-fluoro-2-(2H-1,2,3-triazol-2-yl)phenyl]carbonyl}octahydropyrrolo[3,4-c]pyrrole] | 318
4 | Cc1cc(C)nc(N2CC3CN(C(=O)c4c(F)cccc4-c4ncccn4)CC3C2)n1 (centres unmarked) [Example 73, 2-(4,6-Dimethylpyrimidin-2-yl)-5-[(2-fluoro-6-pyrimidin-2-ylphenyl)carbonyl]octahydropyrrolo[3,4-c]pyrrole] | 7
5 | Cc1cc(C)nc(N2CC3CN(C(=O)c4cc(F)ccc4-c4ncccn4)CC3C2)n1 (centres unmarked) [Example 74, 2-(4,6-Dimethylpyrimidin-2-yl)-5-[(5-fluoro-2-pyrimidin-2-ylphenyl)carbonyl]octahydropyrrolo[3,4-c]pyrrole] | 14
6 | CCc1ccccc1C(=O)N1CC2CN(c3nc(C)cc(C)n3)CC2C1 (centres unmarked) [Example 76, 2-(4,6-Dimethylpyrimidin-2-yl)-5-[(2-ethylphenyl)carbonyl]octahydropyrrolo[3,4-c]pyrrole] | 237
7 | CCOc1ccc2ccccc2c1C(=O)N1CC2CN(c3nc(C)cc(C)n3)CC2C1 (centres unmarked) [Example 77, 2-(4,6-Dimethylpyrimidin-2-yl)-5-[(2-ethoxynaphthalen-1-yl)carbonyl]octahydro-pyrrolo[3,4-c]pyrrole] | 25
8 | COc1cc(OC)nc(N2CC3CN(C(=O)c4ccccc4-n4cccn4)CC3C2)n1 (centres unmarked) [Example 78, 2-(4,6-Dimethoxypyrimidin-2-yl)-5-{[2-(1H-pyrazol-1-yl)phenyl]carbonyl}octahydro-pyrrolo[3,4-c]pyrrole] | 550
9 | Cc1cc(C)nc(N2CC3CN(C(=O)c4ncoc4-c4ccccc4)CC3C2)n1 (centres unmarked) [Example 79, 2-(4,6-Dimethylpyrimidin-2-yl)-5-[(5-phenyl-1,3-oxazol-4-yl)carbonyl]octahydro-pyrrolo[3,4-c]pyrrole] | 480
10 | Cc1cc(C)nc(N2CC3CN(C(=O)c4cnoc4-c4ccccc4)CC3C2)n1 (centres unmarked) [Example 80, 2-(4,6-Dimethylpyrimidin-2-yl)-5-[(5-phenylisoxazol-4-yl)carbonyl]octahydro-pyrrolo[3,4-c]pyrrole] | 314
11 | Cc1cc(N2CC3CN(C(=O)c4ccccc4-n4nccn4)CC3C2)nc(C(C)C)n1 (centres unmarked) [Example 81, [5-(2-Isopropyl-6-methyl-pyrimidin-4-yl)-hexahydro-pyrrolo[3,4-c]pyrrol-2-yl]-(2-[1,2,3]triazol-2-yl-phenyl)-methanone] | 1220
12 | Cc1cc(C)nc(N2CC3CN(C(=O)c4ccccc4Br)CC3C2)n1 (centres unmarked) [Example 82, 2-[(2-Bromophenyl)carbonyl]-5-(4,6-dimethylpyrimidin-2-yl)octahydropyrrolo[3,4-c]pyrrole] | 379
13 | COc1cc(OC)nc(N2CC3CN(C(=O)c4ccccc4-n4nccn4)CC3C2)n1 (centres unmarked) [Example 84, 2-(4,6-Dimethoxypyrimidin-2-yl)-5-{[2-(2H-1,2,3-triazol-2-yl)phenyl]carbonyl}octahydropyrrolo[3,4-c]pyrrole] | 53
14 | O=C(c1ccccc1-c1nnc[nH]1)N1CC2CN(c3cnc4ccccc4n3)CC2C1 (centres unmarked) [Example 85, 2-[5-{[2-(4H-1,2,4-Triazol-3-yl)phenyl]carbonyl}hexahydropyrrolo[3,4-c]pyrrol-2(1H)-yl]quinoxaline] | 98
15 | O=C(c1ccccc1-c1nnc[nH]1)N1CC2CN(c3nc4ccccc4o3)CC2C1 (centres unmarked) [Example 86, 2-[5-{[2-(4H-1,2,4-Triazol-3-yl)phenyl]carbonyl}hexahydropyrrolo[3,4-c]pyrrol-2(1H)-yl]-1,3-benzoxazole] | 256
16 | Cc1ccnc(N2CC3CN(C(=O)c4ccccc4-c4nnc[nH]4)CC3C2)n1 (centres unmarked) [Example 87, 2-(4-Methylpyrimidin-2-yl)-5-{[2-(4H-1,2,4-triazol-3-yl)phenyl]carbonyl}octahydro-pyrrolo[3,4-c]pyrrole] | 509
17 | CCOc1ccccc1C(=O)N1CC2CN(c3nc(C)cc(C)n3)CC2C1 (centres unmarked) [Example 88, 2-(4,6-Dimethylpyrimidin-2-yl)-5-[(2-ethoxyphenyl)carbonyl]octahydropyrrolo[3,4-c]pyrrole] | 75
18 | Cc1cc(C)nc(N2CC3CN(C(=O)c4ccc(F)cc4C(F)(F)F)CC3C2)n1 (centres unmarked) [Example 89, 2-(4,6-Dimethylpyrimidin-2-yl)-5-{[4-fluoro-2-(trifluoromethyl)phenyl]carbonyl}octahydropyrrolo[3,4-c]pyrrole] | 452

Row | SMILES | Ki [nM]
19 | Cc1cc(C)nc(N2CC3CN(C(=O)c4ccc(F)c5ccccc45)CC3C2)n1 (centres unmarked) [Example 90, 2-(4,6-Dimethylpyrimidin-2-yl)-5-[(4-fluoronaphthalen-1-yl)carbonyl]octahydro-pyrrolo[3,4-c]pyrrole] | 38
20 | Cc1cc(C)nc(N2CC3CN(C(=O)c4ccccc4C(C)C)CC3C2)n1 (centres unmarked) [Example 91, 2-(4,6-Dimethylpyrimidin-2-yl)-5-{[2-(1-methylethyl)phenyl]carbonyl}octahydro-pyrrolo[3,4-c]pyrrole] | 541
21 | COc1cccc(C(=O)N2CC3CN(c4nc(C)cc(C)n4)CC3C2)c1C (centres unmarked) [Example 92, 2-(4,6-Dimethylpyrimidin-2-yl)-5-[(3-methoxy-2-methylphenyl)carbonyl]octahydro-pyrrolo[3,4-c]pyrrole] | 766
22 | Cc1cc(C)nc(N2CC3CN(C(=O)c4cccc5ccccc45)CC3C2)n1 (centres unmarked) [Example 93, 2-(4,6-Dimethylpyrimidin-2-yl)-5-(naphthalen-1-ylcarbonyl)octahydropyrrolo[3,4-c]pyrrole] | 64
23 | O=C(c1ccccc1-c1nnc[nH]1)N1CC2CN(c3nc4ccccc4nc3C(F)(F)F)CC2C1 (centres unmarked) [Example 94, 2-[5-{[2-(4H-1,2,4-Triazol-3-yl)phenyl]carbonyl}hexahydropyrrolo[3,4-c]pyrrol-2(1H)-yl]-3-(trifluoromethyl)quinoxaline] | 551
24 | Cc1nc2ccccc2nc1N1CC2CN(C(=O)c3ccccc3-c3nnc[nH]3)CC2C1 (centres unmarked) [Example 95, 2-Methyl-3-[5-{[2-(4H-1,2,4-triazol-3-yl)phenyl]carbonyl}hexahydropyrrolo[3,4-c]pyrrol-2(1H)-yl]quinoxaline] | 215
25 | Cc1cc(N2CC3CN(C(=O)c4ccccc4-c4nnc[nH]4)CC3C2)nc(C(F)(F)F)n1 (centres unmarked) [Example 96, 2-[6-Methyl-2-(trifluoromethyl)pyrimidin-4-yl]-5-{[2-(4H-1,2,4-triazol-3-yl)phenyl]carbonyl}octahydropyrrolo[3,4-c]pyrrole] | 68
26 | Cc1cc(N2CC3CN(C(=O)c4ccccc4-n4nccn4)CC3C2)nc(C(F)(F)F)n1 (centres unmarked) [Example 97, 2-[6-Methyl-2-(trifluoromethyl)pyrimidin-4-yl]-5-{[2-(2H-1,2,3-triazol-2-yl)phenyl]carbonyl}octahydropyrrolo[3,4-c]pyrrole] | 25
27 | Cc1cc(N2CC3CN(C(=O)c4c(F)cccc4-n4nccn4)CC3C2)nc(C(F)(F)F)n1 (centres unmarked) [Example 98, 2-{[2-Fluoro-6-(2H-1,2,3-triazol-2-yl)phenyl]carbonyl}-5-[6-methyl-2-(trifluoromethyl)pyrimidin-4-yl]octahydropyrrolo[3,4-c]pyrrole] | 28
28 | Cc1cc(N2CC3CN(C(=O)c4ccc(F)cc4-n4nccn4)CC3C2)nc(C(F)(F)F)n1 (centres unmarked) [Example 99, 2-{[4-Fluoro-2-(2H-1,2,3-triazol-2-yl)phenyl]carbonyl}-5-[6-methyl-2-(trifluoromethyl)pyrimidin-4-yl]octahydropyrrolo[3,4-c]pyrrole] | 15
29 | Cc1ccc(-n2nccn2)c(C(=O)N2CC3CN(c4cncc(C)n4)CC3C2)c1 (centres unmarked) [Example 100, 2-(6-Methylpyrazin-2-yl)-5-{[5-methyl-2-(2H-1,2,3-triazol-2 yl)phenyl]carbonyl}octahydropyrrolo[3,4-c]pyrrole] | 238
30 | Cc1cnc(C)c(N2CC3CN(C(=O)c4c(F)cccc4-n4nccn4)CC3C2)n1 (centres unmarked) [Example 101, 2-(3,6-Dimethylpyrazin-2-yl)-5-{[2-fluoro-6-(2H-1,2,3-triazol-2-yl)phenyl]carbonyl}octahydropyrrolo[3,4-c]pyrrole] | 48
31 | Cc1ccc(-c2ncccn2)c(C(=O)N2CC3CN(c4nc(C)cc(C)n4)CC3C2)c1 (centres unmarked) [Example 102, 2-(4,6-Dimethylpyrimidin-2-yl)-5-[(5-methyl-2-pyrimidin-2-ylphenyl)carbonyl]octahydropyrrolo[3,4-c]pyrrole] | 17
32 | Cc1ccc(-c2ncccn2)c(C(=O)N2CC3CN(c4nc(C)cnc4C)CC3C2)c1 (centres unmarked) [Example 103, 2-(3,6-Dimethylpyrazin-2-yl)-5-[(5-methyl-2-pyrimidin-2-ylphenyl)carbonyl]octahydropyrrolo[3,4-c]pyrrole] | 38
33 | Cc1cnc(C)c(N2CC3CN(C(=O)c4ccc(F)cc4-n4nccn4)CC3C2)n1 (centres unmarked) [Example 104, 2-(3,6-Dimethylpyrazin-2-yl)-5-{[4-fluoro-2-(2H-1,2,3-triazol-2-yl)phenyl]carbonyl}octahydropyrrolo[3,4-c]pyrrole] | 42
34 | CN(C)c1nc(N2CC3CN(C(=O)c4c(F)cccc4-n4nccn4)CC3C2)cc(C(F)(F)F)n1 (centres unmarked) [Example 106, 4-[5-{[2-Fluoro-6-(2H-1,2,3-triazol-2-yl)phenyl]carbonyl}hexahydropyrrolo[3,4-c]pyrrol-2(1H)-yl]-N,N-dimethyl-6-(trifluoromethyl)pyrimidin-2-amine] | 26
35 | Cc1ccc(-c2ncccn2)c(C(=O)N2CC3CN(c4cc(C(F)(F)F)nc(N(C)C)n4)CC3C2)c1 (centres unmarked) [Example 108, N,N-Dimethyl-4-{5-[(5-methyl-2-pyrimidin-2-ylphenyl)carbonyl]hexahydropyrrolo[3,4-c]pyrrol-2(1H)-yl}-6-(trifluoromethyl)pyrimidin-2-amine] | 57
